Assay results as given in PubChem BioAssay AID2060348 (Molecular Pharmacology Branch, DTP, NCI, 2025).

System: 885724-159-R-J1-PDC spheroids viability
Assay: Anticancer human tumor 885724-159-R-J1-PDC patient-derived pancreatic adenocarcinoma cell line growth inhibition [TAK]
Settings: spheroids with HUVEC and MSC; for IC50: curve of first compound; for viability, T/C: stronger effect = lower value
Method in brief: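 Drug combinations, each paired with TAK-243 or ipatasertib, were tested on multi-cell spheroids of 60% malignant cells, 25% HUVEC and 15% hMSC. Top concentrations were at or near the clinical Cmax (10 microM if undetermined), decreasing by half-log; viability is given as % test/control.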

[1] = second compound 0.3 µM, first compound 0.0316 µM
[2] = second compound 0.3 µM, first compound 0.1 µM
[3] = second compound 0.3 µM, first compound 0.316 µM
[4] = second compound 0.3 µM, first compound 1 µM
[5] = second compound 0.949 µM, first compound 0.0316 µM
[6] = second compound 0.949 µM, first compound 0.1 µM
[7] = second compound 0.949 µM, first compound 0.316 µM
[8] = second compound 0.949 µM, first compound 1 µM
[9] = second compound 3 µM, first compound 0.0316 µM
[10] = second compound 3 µM, first compound 0.1 µM
[11] = second compound 3 µM, first compound 0.316 µM
[12] = second compound 3 µM, first compound 1 µM
[13] = second compound 9.49 µM, first compound 0.0316 µM
[14] = second compound 9.49 µM, first compound 0.1 µM
[15] = second compound 9.49 µM, first compound 0.316 µM
[16] = second compound 9.49 µM, first compound 1 µM
[17] = second compound 30 µM, first compound 0.0316 µM
[18] = second compound 30 µM, first compound 0.1 µM
[19] = second compound 30 µM, first compound 0.316 µM
[20] = second compound 30 µM, first compound 1 µM
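Also: spheroids exposed to drugs for seven days.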
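For viability, T/C in this document: 100% = DMSO vehicle control viability.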

| Compound | IC50 (second compound 0.3 µM) | IC50 (second compound 0.949 µM) | IC50 (second compound 3 µM) | IC50 (second compound 9.49 µM) | IC50 (second compound 30 µM) | viability, T/C [1] | viability, T/C [2] | viability, T/C [3] | viability, T/C [4] | viability, T/C [5] | viability, T/C [6] | viability, T/C [7] | viability, T/C [8] | viability, T/C [9] | viability, T/C [10] | viability, T/C [11] | viability, T/C [12] | viability, T/C [13] | viability, T/C [14] | viability, T/C [15] | further results |
| --- | --- | --- | --- | --- | --- | --- | --- | --- | --- | --- | --- | --- | --- | --- | --- | --- | --- | --- | --- | --- | --- |
| COc1c(OCCCN2CCOCC2)ccc2c3n(c(=NC(=O)c4cnc(N)nc4)nc12)CCN3 + CC(C)NCC(C(=O)N1CCN(c2ncnc3c2C(C)CC3O)CC1)c1ccc(Cl)cc1 | 4.05 nM | < 3.16 nM | < 3.16 nM | < 3.16 nM | < 3.16 nM | 27.3% | 19.4% | 13.4% | 12.3% | 20.3% | 14.8% | 12.1% | 10.8% | 16% | 13.7% | 11.6% | 11.2% | 13.8% | 11.3% | 9.95% | viability, T/C (second compound 0.3 µM, first compound 0.00316 µM): 52.4%; viability, T/C (second compound 0.3 µM, first compound 0.01 µM): 41.2%; viability, T/C (second compound 0.949 µM, first compound 0.00316 µM): 32.9%; viability, T/C (second compound 0.949 µM, first compound 0.01 µM): 27.1%; viability, T/C (second compound 3 µM, first compound 0.00316 µM): 26.9%; viability, T/C (second compound 3 µM, first compound 0.01 µM): 20.4%; viability, T/C (second compound 9.49 µM, first compound 0.00316 µM): 22.8%; viability, T/C (second compound 9.49 µM, first compound 0.01 µM): 18.9%; viability, T/C [16]: 10.2%; viability, T/C (second compound 30 µM, first compound 0.00316 µM): 18%; viability, T/C (second compound 30 µM, first compound 0.01 µM): 12.7%; viability, T/C [17]: 9.8%; viability, T/C [18]: 9.29%; viability, T/C [19]: 6.93%; viability, T/C [20]: 6.96% |
| Cc1nc(NC(=O)N2CCCC2C(N)=O)sc1-c1ccnc(C(C)(C)C(F)(F)F)c1 (stereo not given) + CC(C)NCC(C(=O)N1CCN(c2ncnc3c2C(C)CC3O)CC1)c1ccc(Cl)cc1 | 154 nM | < 31.6 nM | < 31.6 nM | < 31.6 nM | < 31.6 nM | 60.9% | 46.4% | 47.6% | 41.5% | 47.9% | 44.2% | 35.9% | 27.8% | 44.5% | 43.5% | 28.9% | 21.3% | 40% | 35.2% | 26.9% | viability, T/C (second compound 0.3 µM, first compound 3.16 µM): 27.5%; viability, T/C (second compound 0.3 µM, first compound 10 µM): 19.4%; viability, T/C (second compound 0.949 µM, first compound 3.16 µM): 20.8%; viability, T/C (second compound 0.949 µM, first compound 10 µM): 14.3%; viability, T/C (second compound 3 µM, first compound 3.16 µM): 19%; viability, T/C (second compound 3 µM, first compound 10 µM): 12.7%; viability, T/C [16]: 19.4%; viability, T/C (second compound 9.49 µM, first compound 3.16 µM): 14.3%; viability, T/C (second compound 9.49 µM, first compound 10 µM): 9.85%; viability, T/C [17]: 28.8%; viability, T/C [18]: 26.4%; viability, T/C [19]: 19.6%; viability, T/C [20]: 14.3%; viability, T/C (second compound 30 µM, first compound 3.16 µM): 10.7%; viability, T/C (second compound 30 µM, first compound 10 µM): 6.4% |
